In patent US20100204182A1, “ECTONUCLEOTIDASE INHIBITORS” (RHEINISCHE FRIEDRICH-WILHELMS-UNIVERSITAT BONN, priority 2006, published 2010) one finds inhibition and Ki data, which are given here for two compounds.

What is called inhibition is the drop in the measured response relative to a control, in per cent. Usually Ki stands for a dissociation constant, usually derived from enzyme kinetics or from competition with a known ligand.

The target in one experiment is T1, human NTPDase3 (Homo sapiens, UniProt O75355).
T1 sequence (O75355 1-529): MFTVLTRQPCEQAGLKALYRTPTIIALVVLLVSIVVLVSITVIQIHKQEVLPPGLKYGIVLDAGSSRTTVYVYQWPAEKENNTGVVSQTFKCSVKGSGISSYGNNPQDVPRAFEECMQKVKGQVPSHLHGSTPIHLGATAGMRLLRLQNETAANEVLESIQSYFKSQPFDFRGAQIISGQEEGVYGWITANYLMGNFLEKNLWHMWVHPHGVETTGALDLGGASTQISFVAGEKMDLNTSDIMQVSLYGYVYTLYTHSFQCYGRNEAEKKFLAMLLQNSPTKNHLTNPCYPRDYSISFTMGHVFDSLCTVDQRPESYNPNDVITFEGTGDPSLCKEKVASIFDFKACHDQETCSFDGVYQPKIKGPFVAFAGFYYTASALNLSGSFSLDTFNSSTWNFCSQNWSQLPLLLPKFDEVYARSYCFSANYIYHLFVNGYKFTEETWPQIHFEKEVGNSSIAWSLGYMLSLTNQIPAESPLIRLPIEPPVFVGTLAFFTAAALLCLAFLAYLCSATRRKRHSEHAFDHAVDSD
In words: NTPDase inhibition assay by capillary electrophoresis (CE), NTPDase3. It is filed as biochemical. The conditions noted are these: ATP 320 μM; for inhibition at 1000 µM: 1 mM compound; for Ki: CE method, Km 75 μM, read-out: NTPDase3 Ki [μM] ± SEM. Here is the method: (§1) The applied enzyme inhibition assay has been described (Iqbal J, Vollmayer P, Braun N, Zimmermann H, Müller C E. A capillary electrophoresis method for the characterization of ecto-nucleoside triphosphate diphosphohydrolases (NTPDases) and the analysis of inhibitors by in-capillary enzymatic microreaction. Purinergic Signalling 2005, 1, 349-358).
(§2) A. CE instrumentation: All experiments were carried out using a P/ACE MDQ capillary electrophoresis system (Beckman Instruments, Fullerton, Calif., USA) equipped with a UV detection system coupled with a diode-array detector (DAD). Data collection and peak area analysis were performed by the P/ACE MDQ software 32 KARAT obtained from Beckman Coulter. The capillary temperature was kept constant at 25° C. The temperature of the sample storing unit was also adjusted to 25° C. The electrophoretic separations were carried out using an eCAP polyacrylamide-coated fused-silica capillary [(30 cm (20 cm effective length)×50 μm internal diameter (I.D.)×360 μm outside diameter (O.D.), obtained from CS-Chromatographie (Langerwehe, Germany)]. The separation was performed using an applied current of −60 μA and a data acquisition rate of 8 Hz. Analytes were detected using direct UV absorbance at 210 nm. The capillary was conditioned by rinsing with water for 2 min and subsequently with buffer (phosphate 50 mM, pH 6.5) for 1 min. Sample injections were made at the cathodic side of the capillary.
(§3) B. NTPDase inhibition assay by capillary electrophoresis: Enzyme inhibition assays were carried out at 37° C. in a final volume of 100 μl. The reaction mixture contained 320 μM of ATP (substrate) in reaction buffer. The reaction buffer contained 140 mM NaCl, 5 mM KCl, 1 mM MgCl2, 2 mM CaCl2, and 10 mM Hepes, pH 7.4.
(§4) Different concentrations of inhibitors dissolved in DMSO or water (10 μl) were added and the reaction was initiated by the addition of 10 μl of the appropriately diluted recombinant or native human or rat NTPDase enzyme. […] The mixture (final volume 100 μl) was incubated for 15 min and terminated by heating at 99° C. for 4 min. Aliquots of the reaction mixture (50 μl) were then transferred to mini-CE vials and injected into the CE instrument under the conditions described above. 20 μM of UMP was used as internal standard. Inhibition of NTPDase was tested over a range of 6 to 8 concentrations of test compound spanning 3 orders of magnitude to determine K1 values. Each analysis was repeated two times (in triplicates) in two separate experiments. The Cheng-Prusoff equation was used to calculate the K1 values from the IC50 values, determined by the non-linear curve fitting program PRISM® 3.0 (GraphPad, San Diego, Calif., USA). In table 1K, values of selected compounds as inhibitors of human NTPDases are given.

A further experiment has as its target T2, human NTPDase8 (Homo sapiens, UniProt Q5MY95).
T2 sequence (Q5MY95 1-495): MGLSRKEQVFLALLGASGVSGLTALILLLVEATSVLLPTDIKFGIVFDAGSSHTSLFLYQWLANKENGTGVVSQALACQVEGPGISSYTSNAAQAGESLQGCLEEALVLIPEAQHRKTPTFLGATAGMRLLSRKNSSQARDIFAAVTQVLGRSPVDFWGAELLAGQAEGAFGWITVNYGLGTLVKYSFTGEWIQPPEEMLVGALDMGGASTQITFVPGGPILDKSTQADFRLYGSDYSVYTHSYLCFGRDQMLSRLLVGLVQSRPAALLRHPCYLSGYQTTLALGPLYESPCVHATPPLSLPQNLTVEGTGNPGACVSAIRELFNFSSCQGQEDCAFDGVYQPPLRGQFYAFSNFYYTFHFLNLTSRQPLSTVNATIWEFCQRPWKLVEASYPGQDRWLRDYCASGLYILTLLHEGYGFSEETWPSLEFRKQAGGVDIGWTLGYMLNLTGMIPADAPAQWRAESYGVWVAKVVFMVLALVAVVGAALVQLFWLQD
The experiment in a line: NTPDase inhibition assay by capillary electrophoresis (CE), NTPDase8. In kind it is biochemical. The conditions noted are these: for inhibition at 1000 µM: human NTPDase8, 1 mM compound, ATP 320 μM; for Ki: read-out: NTPDase8 Ki [μM] ± SEM. How it is done: as §1, §2, §3, §4

For the next experiment, the target named is hP2Y4 (Homo sapiens, UniProt P51582). In words: Inhibition of UTP binding at hP2Y4. The conditions noted are these: read-out: hP2Y4 % inhibition of UTP binding at 100 μM, n = 3, mean ± SEM. Here is the method: In table 2 inhibition data of selected examples at human P2Y receptor subtypes were collected. It can be seen that no compound was identified that inhibited P2Y receptors at high concentrations of 100 μM and 10 μM, respectively.
hP2Y4, sequence (P51582 whole entry): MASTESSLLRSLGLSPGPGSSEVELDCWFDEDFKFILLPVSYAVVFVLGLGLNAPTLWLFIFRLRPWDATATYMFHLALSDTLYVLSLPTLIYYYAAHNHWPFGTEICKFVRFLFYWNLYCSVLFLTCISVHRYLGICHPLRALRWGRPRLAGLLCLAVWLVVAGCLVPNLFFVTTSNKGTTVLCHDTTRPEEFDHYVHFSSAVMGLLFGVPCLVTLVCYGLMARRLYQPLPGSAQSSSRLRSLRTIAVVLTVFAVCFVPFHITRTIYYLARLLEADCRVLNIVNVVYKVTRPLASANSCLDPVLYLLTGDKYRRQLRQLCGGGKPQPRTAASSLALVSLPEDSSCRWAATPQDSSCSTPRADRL

For the compound `CCOP(=O)(Cc1ccc(NC(=O)CNC(=O)[C@H]2O[C@@H](n3ccc(=O)[nH]c3=O)C(O)C2O)cc1)OCC` (stereo in doubt) [Compound 2, 4-[2-((2S,3R,4S,5R)-5-(2,4-Dioxo-3,4-dihydropyrimidin-1(2H)-yl)-3,4-dihydroxy-tetrahydrofurane-2-carboxamido)ethaneamido]benzylphosphonic acid diethylester], the inhibition at 1000 µM against human NTPDase3 and at human NTPDase8 was 0% in each case. In addition, the Ki at human NTPDase3 is greater than 200 µM; at human NTPDase8, greater than 100 µM.

As for `CCOP(=O)(Cc1ccc(NC(=O)CCNC(=O)[C@H]2O[C@@H](n3ccc(=O)[nH]c3=O)C(O)C2O)cc1)OCC` (stereo in doubt) [Compound 3, 4-[3-((2S,3R,4S,5R)-5-(2,4-Dioxo-3,4-dihydropyrimidin-1(2H)-yl)-3,4-di-hydroxy-tetrahydrofurane-2-carboxamido)propaneamido]benzylphosphonic acid diethylester], the inhibition at 1000 µM on human NTPDase3 is 40%; at human NTPDase8 it was 0%. The Ki on human NTPDase3 was greater than 200 µM; at human NTPDase8, greater than 100 µM. At hP2Y4, the inhibition at 100 µM stood at 14 ± 6%.
